The results in this text go back to the supplement of paper PMC5579334.

A value given as a limit tells only on which side of the number the result lay.

The subject of test [1] is YST-1. As to the kind of experiment: relative IC50 (inflection point of fitted dose-response curve, CellTiter-Glo viability, 72 h; top asymptote may be below 50% inhibition); higher = less potent. In short, it runs like this:
(§1)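 MPNST cell lines and primary human Schwann cells (750–1000 cells per well) went into 384-well plates preprinted with each compound at five concentrations in 10-fold steps. Plates were incubated 72 h at 37 °C, 5% CO2. Viability was read as CellTiter-Glo ATP luminescence, scaled between vehicle and positive-control wells, with duplicates averaged where present. Percent inhibition is at the top concentration; drug sensitivity score and relative IC50 (censored at top concentration) come from four-parameter logistic fits.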

Test [2] has as its system HS-Sch-2. The description is as above. The essentials:
as §1

Test [3] relates to HS-PSS. The description is as above. The essentials: as §1
The subject of test [4] is HS-PSS. Description: relative IC50 (inflection point of fitted dose-response curve, CellTox-Green cytotoxicity, 72 h; top asymptote may be below 50%); higher = less potent. The essentials:
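MPNST cell lines and primary human Schwann cells were incubated 72 h at 37 °C in 384-well plates holding five 10-fold compound dilutions. CellTox-Green was added before seeding at a final 1:1000 dilution and reported fluorescence from DNA released by disrupted cells. Signals were scaled to vehicle and positive-control wells, and cultures failing plate quality control were dropped. Drug sensitivity score and relative IC50 come from four-parameter logistic fits, with IC50 censored at the top concentration.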

The term relative IC50 denotes the concentration halfway between the upper and lower plateau of the fitted curve. As for `COc1cc(NS(C)(=O)=O)ccc1Nc1c2ccccc2nc2ccccc12` [Amsacrine], the “relative IC50” value in test [1] worked out at 252 nM; in test [2] it was 634 nM; in test [3], 1250 nM.
The matching figures for `NC(=O)c1cccc2cn(-c3ccc(C4CCCNC4)cc3)nc12` (stereo not given) [Niraparib]: 461 nM, 661 nM and 1760 nM.
Consider `CN(c1ncccc1CNc1nc(Nc2ccc3c(c2)CC(=O)N3)ncc1C(F)(F)F)S(C)(=O)=O`, for which the figures for the “relative IC50” value in test [1], in test [2] and in test [3] were 2010 nM, 3410 nM and 3340 nM, respectively.
Turning to `O=C(Nc1cccc(NC(=O)c2cccc(O)c2O)c1)c1cccc(O)c1O` [MST-312], the “relative IC50” value in test [1] is 3120 nM; in test [2], 984 nM; in test [3], 3370 nM.
The matching figures for `O=C(CCCCCCNC(=O)c1cnc(N(c2ccccc2)c2ccccc2)nc1)NO` [Rocilinostat]: 1240 nM, 1930 nM and 2760 nM.
The matching figures for `O=C(c1ccc(F)c(F)c1Nc1ccc(I)cc1F)N1CC(O)([C@@H]2CCCCN2)C1` [Cobimetinib]: over 1000 nM, 300 nM and 159 nM.
Take `O=C(O)c1ccc(Nc2ncc3c(n2)-c2ccc(Cl)cc2C(c2c(F)cccc2F)=NC3)cc1` [MLN-8054]: the “relative IC50” value in test [1] was 625 nM; in test [2], 1110 nM; in test [3], 1260 nM.
The matching figures for `CN[C@@H](C)C(=O)N[C@H](C(=O)N1CCC[C@H]1c1nc(C(=O)c2ccc(F)cc2)cs1)C1CCCCC1` [LCL161]: 4260 nM, 7520 nM and 3860 nM.
In the same order, the values of `CCn1nnc2c(N3CCOCC3)nc(-c3ccc(NC(=O)Nc4ccc(C(=O)N5CCN(C)CC5)cc4)cc3)nc21` [PKI-402] are 61.1 nM, 95.8 nM and 46.7 nM.
For the molecule `COc1ccc(COc2cc3oc(=O)c4cc(C(C)O)ccc4c3cc2OC)cc1` (stereo not given) [Palomid-529], the “relative IC50” value in test [4], in test [2] and in test [3] was over 10000 nM in each case.
With `CCOc1cc2ncc(C#N)c(Nc3ccc(F)c(Cl)c3)c2cc1NC(=O)/C=C/CN(C)C` [Pelitinib], the “relative IC50” value in test [1] amounted to 323 nM; in test [2] it was 195 nM; in test [3], 79.5 nM.
In the same order, the values of `Cc1cc2c(C(=O)NC[C@H](C)c3ccccc3)c(O)c(O)cc2c(O)c1-c1c(C)cc2c(C(=O)NC[C@H](C)c3ccccc3)c(O)c(O)cc2c1O` [Sabutoclax] are 618 nM, 523 nM and 8740 nM.
As for `CNC(=O)c1ccccc1Nc1cc(Nc2ccc(N3CCOCC3)cc2OC)ncc1C(F)(F)F` [VS-4718], the entries for the “relative IC50” value in test [1], in test [2] and in test [3] were 724 nM, 2610 nM and 3690 nM, respectively.
`CNC(=O)c1nn(C)c2c1C(C)(C)Cc1cnc(Nc3ccc(N4CCN(C)CC4)cc3)nc1-2` [Milciclib]: the “relative IC50” value in test [1] was 351 nM; in test [2], 1240 nM; in test [3] it was 779 nM.
Regarding `O[C@H]1CC[C@H](Nc2ncc3nc(Nc4c(F)cc(F)cc4F)n([C@H]4CCOC4)c3n2)CC1` [Tanzisertib], the “relative IC50” value in test [4], in test [2] and in test [3] was over 10000 nM each time.
Turning to `O=C1c2ccccc2-c2n[nH]c3cccc1c23`, the “relative IC50” value in test [1] came out at 20100 nM; in test [2] it was 13900 nM; in test [3], 13300 nM.
Regarding `CON(C)C(=O)N1N=C(c2cc(F)ccc2F)S[C@@]1(CCCN)c1ccccc1` [Filanesib], the “relative IC50” value stood at 2.28 nM in test [1], 2.19 nM in test [2] and 4.62 nM in test [3].
Turning to `CC(C)NC[C@@H](C(=O)N1CCN(c2ncnc3c2[C@H](C)C[C@H]3O)CC1)c1ccc(Cl)cc1` [Ipatasertib], the entries for the “relative IC50” value in test [1], in test [2] and in test [3] were 879 nM, 1080 nM and 1160 nM, respectively.
`COc1cccc(OCCCN)c1-c1cc(Nc2cnc(C#N)cn2)n[nH]1` [Prexasertib]: the “relative IC50” value in test [1] was 54.7 nM; in test [2], 26 nM; in test [3], 1770 nM.
Consider `COc1cc2ncnc(Oc3cccc(NC(=O)Nc4cc(C(C)(C)C(F)(F)F)on4)c3)c2cc1OC`, for which the “relative IC50” value in test [4], in test [2] and in test [3] was over 10000 nM throughout.
In the case of `CCc1cc2c(cc1N1CCC(N3CCOCC3)CC1)C(C)(C)c1[nH]c3cc(C#N)ccc3c1C2=O` [Alectinib], the figures for the “relative IC50” value in test [4], in test [2] and in test [3] were over 1000 nM, over 1000 nM and 34.8 nM, respectively.
Regarding `O=C(/C=C\n1cnc(-c2cc(C(F)(F)F)cc(C(F)(F)F)c2)n1)NNc1ccccn1` [Verdinexor], the “relative IC50” value in test [1] was 144 nM; in test [2], 137 nM; in test [3], 137 nM.
As for `Cc1cc([C@@H](C)Nc2ccccc2C(=O)O)c2nc(N3CCOCC3)cc(=O)n2c1` [AZD-6482], the “relative IC50” value in test [4], in test [2] and in test [3] was over 2500 nM in each case.
Regarding `C=CC(=O)N1CCC(Oc2cc3c(Nc4ccc(Cl)c(Cl)c4F)ncnc3cc2OC)CC1` [Poziotinib], the “relative IC50” value in test [4], in test [2] and in test [3] was over 1000 nM throughout.
Regarding `O=C(NC1CCNCC1)c1n[nH]cc1NC(=O)c1c(Cl)cccc1Cl` [AT7519], the “relative IC50” value in test [1] stood at 69.3 nM; in test [2], 337 nM; in test [3], 277 nM.
The matching figures for `CC(=O)NCC(=O)N1[C@@H]2CC[C@H]1c1ccc(Nc3ncc(C(F)(F)F)c(NC4CCC4)n3)cc12`: 749 nM, 946 nM and 960 nM.
In the same order, the values of `C=CC(=O)Nc1cc(Nc2nccc(-c3cn(C)c4ccccc34)n2)c(OC)cc1N(C)CCN(C)C` [Osimertinib] are 299 nM, 759 nM and 472 nM.
As to `Nc1nc2[nH]cc(CCc3ccc(C(=O)N[C@@H](CCC(=O)O)C(=O)O)cc3)c2c(=O)[nH]1` [Pemetrexed], the results for the “relative IC50” value in test [4], in test [2] and in test [3] were over 10000 nM, 64.1 nM and over 10000 nM, respectively.
As to `Cc1cc(Nc2ncc(Cl)c(Nc3ccccc3S(=O)(=O)C(C)C)n2)c(OC(C)C)cc1C1CCNCC1` [Ceritinib], the entries for the “relative IC50” value in test [1], in test [2] and in test [3] were 359 nM, 926 nM and 91.3 nM, respectively.
As to `N#CC(c1ccnc(OCc2ccc(CN3CCOCC3)cc2)n1)c1nc2ccccc2s1` (stereo not given) [Bentamapimod], the “relative IC50” value amounted to 1500 nM in test [1], 2690 nM in test [2] and 1690 nM in test [3].
In the same order, the values of `Cc1ccc2nc(CN(CCN(Cc3nc4ccc(C)cc4[nH]3)Cc3nc4ccc(C)cc4[nH]3)Cc3nc4ccc(C)cc4[nH]3)[nH]c2c1` are 7770 nM, 8240 nM and 7700 nM.
For `OC(CC1c2ccccc2-c2cncn21)C1CCCCC1` (stereo not given) [NLG919], the “relative IC50” value in test [4], in test [2] and in test [3] was over 10000 nM in each case.
`CC(C)CC(=O)Nc1n[nH]c2c1CN(C(=O)C1CCN(C)CC1)C2(C)C`: the “relative IC50” value in test [1] came out at 859 nM; in test [2], 1290 nM; in test [3], 604 nM.
Regarding `Cc1ncc(-c2ccnc(Nc3ccc(S(C)(=O)=O)cc3)n2)n1C(C)C` [AZD-5438], the “relative IC50” value came to 1450 nM in test [1], 1900 nM in test [2] and 367 nM in test [3].
For `COCC(=O)NC/C=C/c1ccc2ncnc(Nc3ccc(Oc4ccc(C)nc4)c(C)c3)c2c1`, the “relative IC50” value in test [4] was over 10000 nM; in test [2], 1250 nM; in test [3], 1540 nM.
The matching figures for `CC1(C)CCC(CN2CCN(c3ccc(C(=O)NS(=O)(=O)c4ccc(NCC5CCOCC5)c([N+](=O)[O-])c4)c(Oc4cnc5[nH]ccc5c4)c3)CC2)=C(c2ccc(Cl)cc2)C1` [Venetoclax]: over 1000 nM, over 1000 nM and over 1000 nM.
In the same order, the values of `c1cn2cc(-c3ccc4cn[nH]c4c3)nc(Nc3ccc(N4CCOCC4)cc3)c2n1` [Entospletinib] are over 5000 nM, over 5000 nM and over 5000 nM.
Consider `Cn1ncc(Cl)c1-c1cc(C(=O)N[C@H](CN)Cc2ccc(F)c(F)c2)oc1Cl` [Uprosertib], for which the “relative IC50” value in test [4], in test [2] and in test [3] was over 10000 nM throughout.
On to `CCN(CC)CCN(Cc1ccc(-c2ccc(C(F)(F)F)cc2)cc1)C(=O)Cn1c(SCc2ccc(F)cc2)nc(=O)c2c1CCC2` [Darapladib], for which the “relative IC50” value was found to be 250 nM in test [4], 192 nM in test [2] and 224 nM in test [3].
In the same order, the values of `N#Cc1c(Oc2ccc(F)c(NC(=O)Cc3cccc(C(F)(F)F)c3)c2)ccc2nc(NC(=O)C3CC3)sc12` [TAK-632] are over 10000 nM, 3860 nM and 3980 nM.
